In patent US20260262643A1, “HERBICIDAL BENZOXAZINES” (FMC CORPORATION, priority 2022, published 2026):

Legend:
corn [1] = assay: Test A preemergence; type: in vivo, Zea mays; conditions: Zea mays, pre-emergence, 240 h; for Corn plant response rating (crop injury, 0 = no effect, 100 = complete kill) at 125 g/ha: 125 g ai/ha, visual injury after 10 days, 0 to 100 scale, 0 is no effect, 100 is complete control; for Corn plant response rating (crop injury, 0 = no effect, 100 = complete kill) at 500 g/ha: 500 g ai/ha, 0 to 100 scale (0 no effect, 100 complete control), 10 days
In short: (§1)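 Loam/sand soil; pre-em directed soil spray at planting, post-em spray at 1–2 leaf (2–10 cm). Compound in non-phytotoxic solvent + surfactant. Greenhouse 10 d; visual injury vs untreated, 0 = no effect, 100 = complete control.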

foxtail, giant [2] = assay: Test A preemergence; type: in vivo, Setaria faberi; conditions: Setaria faberi, pre-emergence, 240 h, read-out: Plant response rating, Foxtail, Giant; for pest or weed control at 125 g/ha: 125 g ai/ha, visual injury after 10 days, 0 to 100 scale, 0 is no effect, 100 is complete control; for pest or weed control at 500 g/ha: 500 g ai/ha, 0 to 100 scale (0 no effect, 100 complete control), 10 days
In short: as §1

oat, wild = assay: Test A preemergence; type: in vivo, Avena fatua; conditions: Avena fatua, pre-emergence, 240 h, read-out: Plant response rating, Oat, Wild; for pest or weed control at 125 g/ha: 125 g ai/ha, visual injury after 10 days, 0 to 100 scale, 0 is no effect, 100 is complete control; for pest or weed control at 500 g/ha: 500 g ai/ha, 0 to 100 scale (0 no effect, 100 complete control), 10 days
In short: as §1

ragweed = assay: Test A preemergence; type: in vivo, Ambrosia artemisiifolia; conditions: Ambrosia artemisiifolia, pre-emergence, 240 h, read-out: Plant response rating, Ragweed; for pest or weed control at 125 g/ha: 125 g ai/ha, visual injury after 10 days, 0 to 100 scale, 0 is no effect, 100 is complete control; for pest or weed control at 500 g/ha: 500 g ai/ha, 0 to 100 scale (0 no effect, 100 complete control), 10 days
In short: as §1

wheat [3] = assay: Test A preemergence; type: in vivo, Triticum aestivum; conditions: Triticum aestivum, pre-emergence, 240 h, read-out: Plant response rating, Wheat; for plant injury at 125 g/ha: 125 g ai/ha, visual injury after 10 days, 0 to 100 scale, 0 is no effect, 100 is complete control; for plant injury at 500 g/ha: 500 g ai/ha, 0 to 100 scale (0 no effect, 100 complete control), 10 days
In short: as §1

corn [4] = assay: Test A postemergence; type: in vivo, Zea mays; conditions: Zea mays, post-emergence, 240 h, postemergence, 10 days, 0 to 100 scale (0 no effect, 100 complete control); for plant injury at 125 g/ha: 125 g ai/ha, read-out: Corn plant response rating; for Corn plant response rating (crop injury, 0 = no effect, 100 = complete kill) at 500 g/ha: 500 g ai/ha, visual injury
In short: as §1

foxtail, giant [5] = assay: Test A postemergence; type: in vivo, Setaria faberi; conditions: Setaria faberi, post-emergence, 240 h, postemergence, 10 days, 0 to 100 scale (0 no effect, 100 complete control); for pest or weed control at 125 g/ha: 125 g ai/ha, read-out: Foxtail, Giant plant response rating; for pest or weed control at 500 g/ha: 500 g ai/ha, visual injury, read-out: Plant response rating, Foxtail, Giant
In short: as §1

kochia = assay: Test A postemergence; type: in vivo, Bassia scoparia; conditions: Bassia scoparia, post-emergence, 240 h, postemergence, 10 days, 0 to 100 scale (0 no effect, 100 complete control); for pest or weed control at 125 g/ha: 125 g ai/ha, read-out: Kochia plant response rating; for pest or weed control at 500 g/ha: 500 g ai/ha, visual injury, read-out: Plant response rating, Kochia
In short: as §1

ryegrass, Italian = assay: Test A postemergence; type: in vivo, Lolium multiflorum; conditions: Lolium multiflorum, post-emergence, 240 h, postemergence, 10 days, 0 to 100 scale (0 no effect, 100 complete control); for pest or weed control at 125 g/ha: 125 g ai/ha, read-out: Ryegrass, Italian plant response rating; for pest or weed control at 500 g/ha: 500 g ai/ha, visual injury, read-out: Plant response rating, Ryegrass, Italian
In short: as §1

soybean = assay: Test A postemergence; type: in vivo, Glycine max; conditions: Glycine max, post-emergence, 240 h, postemergence, 10 days, 0 to 100 scale (0 no effect, 100 complete control); for plant injury at 125 g/ha: 125 g ai/ha, read-out: Soybean plant response rating; for plant injury at 500 g/ha: 500 g ai/ha, visual injury, read-out: Plant response rating, Soybean
In short: as §1

wheat [6] = assay: Test A postemergence; type: in vivo, Triticum aestivum; conditions: Triticum aestivum, post-emergence, 240 h, postemergence, 10 days, 0 to 100 scale (0 no effect, 100 complete control); for plant injury at 125 g/ha: 125 g ai/ha, read-out: Wheat plant response rating; for plant injury at 500 g/ha: 500 g ai/ha, visual injury, read-out: Plant response rating, Wheat
In short: as §1

galium = assay: Test A postemergence; type: in vivo, Galium aparine; conditions: Galium, post-emergence, 240 h, postemergence, 10 days, 0 to 100 scale (0 no effect, 100 complete control); for pest or weed control at 125 g/ha: 125 g ai/ha, read-out: Galium plant response rating; for pest or weed control at 500 g/ha: 500 g ai/ha, visual injury, read-out: Plant response rating, Galium
In short: as §1

barnyardgrass = assay: Test B flooded paddy test; type: in vivo, Echinochloa crus-galli; conditions: Echinochloa crus-galli, 312 h, 250 g ai/ha, Flood, 13 days, 0 to 100 scale (0 no effect, 100 complete control); read-out: Plant response rating, Barnyardgrass
In short: (§2)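 Plants at the 2-leaf stage were flooded to 3 cm above the soil, and test compounds were applied directly into the paddy water, with that depth held throughout. After 13 days in a greenhouse, injury was rated visually against untreated controls on a 0–100 scale (100 = complete control).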

ducksalad = assay: Test B flooded paddy test; type: in vivo, Heteranthera limosa; conditions: Heteranthera limosa, 312 h, 250 g ai/ha, Flood, 13 days, 0 to 100 scale (0 no effect, 100 complete control); read-out: Plant response rating, Ducksalad
In short: as §2

rice = assay: Test B flooded paddy test; type: in vivo, Oryza sativa; conditions: Oryza sativa, 312 h; 250 g ai/ha, Flood, 13 days, 0 to 100 scale (0 no effect, 100 complete control); read-out: Plant response rating, Rice
In short: as §2

Structure (SMILES)	Corn plant response rating (crop injury, 0 = no effect, 100 = complete kill) at 125 g/ha (corn [1]) [%]	Corn plant response rating (crop injury, 0 = no effect, 100 = complete kill) at 500 g/ha (corn [1]) [%]	pest or weed control at 125 g/ha (foxtail, giant [2]) [%]	pest or weed control at 500 g/ha (foxtail, giant [2]) [%]	pest or weed control at 125 g/ha (oat, wild) [%]	pest or weed control at 500 g/ha (oat, wild) [%]	pest or weed control at 125 g/ha (ragweed) [%]	pest or weed control at 500 g/ha (ragweed) [%]	plant injury at 125 g/ha (wheat [3]) [%]	plant injury at 500 g/ha (wheat [3]) [%]	plant injury at 125 g/ha (corn [4]) [%]	Corn plant response rating (crop injury, 0 = no effect, 100 = complete kill) at 500 g/ha (corn [4]) [%]	pest or weed control at 125 g/ha (foxtail, giant [5]) [%]	pest or weed control at 500 g/ha (foxtail, giant [5]) [%]	pest or weed control at 125 g/ha (kochia) [%]	pest or weed control at 500 g/ha (kochia) [%]	pest or weed control at 125 g/ha (ryegrass, Italian) [%]	pest or weed control at 500 g/ha (ryegrass, Italian) [%]	plant injury at 125 g/ha (soybean) [%]	plant injury at 500 g/ha (soybean) [%]	other results
C[C@H]1CN(C(=O)c2cccc(-n3cnc(C4CCC4)n3)c2)c2cccc(Cl)c2O1 [Compound 93, [(2S)-8-Chloro-2,3-dihydro-2-methyl-4H-1,4-benzoxazin-4-yl][3-(3-cyclobutyl-1H-1,2,4-triazol-1-yl)phenyl]methanone]	10	10	80	100	20	90	0	0	0	10	60	90	60	90	80	90	30	90	100	100	plant injury at 125 g/ha (wheat [6]): 20%; plant injury at 500 g/ha (wheat [6]): 20%; pest or weed control at 125 g/ha (galium): 100%; pest or weed control at 500 g/ha (galium): 100%; pest or weed control at 250 g/ha (barnyardgrass): 0%; pest or weed control at 250 g/ha (ducksalad): 0%; plant injury at 250 g/ha (rice): 0%
CCc1ccc(-n2cnc(C(C)C)n2)cc1C(=O)N1C[C@H](C)Oc2c(Cl)cccc21 [Compound 94, [(2S)-8-Chloro-2,3-dihydro-2-methyl-4H-1,4-benzoxazin-4-yl][2-ethyl-5-[3-(1-methylethyl)-1H-1,2,4-triazol-1-yl]phenyl]methanone]	60	90	100	100	40	90	0	0	50	90	80	90	90	90	100	100	50	90	100	100	plant injury at 125 g/ha (wheat [6]): 30%; plant injury at 500 g/ha (wheat [6]): 70%; pest or weed control at 125 g/ha (galium): 100%; pest or weed control at 500 g/ha (galium): 100%; pest or weed control at 250 g/ha (barnyardgrass): 30%; pest or weed control at 250 g/ha (ducksalad): 70%; plant injury at 250 g/ha (rice): 0%
Cc1ccc(-n2cnc(C3CCC3)n2)cc1C(=O)N1C[C@H](C)Oc2c(Cl)cccc21 [Compound 96, [(2S)-8-Chloro-2,3-dihydro-2-methyl-4H-1,4-benzoxazin-4-yl][5-(3-cyclobutyl-1H-1,2,4-triazol-1-yl)-2-methylphenyl]methanone]	30	50	100	100	50	80	30	30	20	50	10	60	90	90	90	100	50	100	100	100	plant injury at 125 g/ha (wheat [6]): 30%; plant injury at 500 g/ha (wheat [6]): 40%; pest or weed control at 125 g/ha (galium): 100%; pest or weed control at 500 g/ha (galium): 100%; pest or weed control at 250 g/ha (barnyardgrass): 60%; pest or weed control at 250 g/ha (ducksalad): 65%; plant injury at 250 g/ha (rice): 0%
